Reference: US12571052B2, “Immunomodulatory RNA” (THE TRUSTEES OF THE UNIVERSITY OF PENNSYLVANIA, priority 2017, dated 2026)
Entries after “also recorded” stand apart in the source; their conditions may differ.

What was measured:
[1] = tested on: B16-F10 tumor cells; assay: B16-F10/MEF co-implantation, tumor growth and survival under checkpoint blockade; assay type: in vivo, C57BL/6 mice; settings: BLZ945 every 2 days for 2 weeks, anti-CTLA4 or anti-CTLA4 and anti-PD1, tumors with unshielded 7SL
Description: Wild type (WT) C57BL/6 mice were injected with 5×10^4 B16-F10 tumor cells subcutaneously in the flank with 5×10^4 MYC activated mouse embryonic fibroblasts (MEFs) or MYC activated MEFs co-expressing SRP9/14. MYC activation is inducible with 4-OHT and results in the secretion of exosomes containing unshielded 7SL1 RNA, while co-expression of SRP9/14 ensures the 7SL1 RNA remains relatively shielded, allowing measurement of the stimulatory capacity specifically of the unshielded form (Nabet B Y, et al. Cell. 2017; 170 (2): 352-366.e13). Mice were subsequently treated with the anti-CTLA-4 or anti-PD-1 antibody (or not), and then tumor growth was monitored by caliper. Endpoint criterion was considered a tumor measurement of 1.5 cm in any direction.
Tumors were implanted as described in FIGS. 25A-25B and treated with CSF1R inhibitor BLZ945 (Novartis) every 2 days for 2 weeks starting at day 0 to prevent M2 polarization of infiltrating myeloid cells. Mice were additionally treated with anti-CTLA4 (FIG. 27A) or anti-CTLA4 and anti-PD1 (FIGS. 27B and 27C) on days 5, 8, and 11. Tumor growth was monitored by caliper.

[2] = tested on: B16-F10 tumor cells; assay: B16-F10/MEF co-implantation, tumor immune populations by flow cytometry; assay type: in vivo, C57BL/6 mice
Description: Mice were implanted with tumors as described FIGS. 25A-25B. Tumors were harvested 13 days later and assessed for infiltration of macrophages or myeloid derived suppressor cells (MDSCs). Macrophages are considered Lin−, F4/80+, and CD11b+ cells. MDSCs are considered Lin−, F4/80−, CD11c−, CD11b+, and Ly6C+ cells. Tumors were treated with anti-CTLA4 blocking antibody (FIG. 26D) as described in FIGS. 25A and 25B, and tumors were harvested at d15 to measure M2 polarization of macrophages as marked by CD206.
Furthermore, mice were implanted with the same tumors and subsequently treated with the CSF1R inhibitor BLZ945. Polarization of macrophages and frequency of CD103+DCs were tested.
In addition, mice were implanted with tumors and treated with anti-CTLA4+/−CSF1Ri BLZ945. Tumors were harvested 13 days later and immune populations were assessed using an unbiased clustering of flow cytometry data.
Mice were implanted with B16-F10 tumor cells mixed 1:1 with MEFs or MEFs co-expressing SRP9/14 (FIG. 35B). Tumors were harvested 2 weeks post-injection and analyzed for immune cell populations. Unshielded RN7SL1 increased the frequency of dendritic cells, the percentage of CD103+ dendritic cells, the percentage of CD69+CD8+ T cells, and the percentage of PD1+CD8+ T cells in tumors (FIG. 35C). […] Without wishing to be bound by theory, a CSF1R inhibitor blocks M2 polarization and may synergize with unshielded RN7SL1.

[3] = tested on: pancreatic ductal adenocarcinoma (PDA) tumor cells; assay: PDA/MEF co-injection, tumor growth under ICB therapy; assay type: in vivo, mice; settings: BLZ945 with unshielded 7SL RNA, anti-CTLA4 and anti-PD1
Description: CSF1R inhibition in combination with unshielded 7SL RNA sensitizes PDA tumors to ICB therapy (FIGS. 28A-28B). 1×10^5 pancreatic ductal adenocarcinoma (PDA) tumor cells were co-injected with 1×10^5 MEFs (“myc-ER”) or MEFs co-expressing SRP9/14 (“myc-ER/SRP”) treated with 4OHT or EtOH. Mice were then treated with a combination of anti-CTLA4 and anti-PD1 antibodies (FIG. 28A) or a triple combination of anti-CTLA4, anti-PD1, and BLZ945 (FIG. 28B) using treatment schedules outlined in the study shown in FIGS. 27A-27C. Tumor growth was monitored by caliper.

[4] = target: T1, recombinant RIG-I (Homo sapiens, UniProt O95786); assay: RIG-I ATPase assay (ATP hydrolysis); assay type: biochemical
T1 sequence (O95786 1-925): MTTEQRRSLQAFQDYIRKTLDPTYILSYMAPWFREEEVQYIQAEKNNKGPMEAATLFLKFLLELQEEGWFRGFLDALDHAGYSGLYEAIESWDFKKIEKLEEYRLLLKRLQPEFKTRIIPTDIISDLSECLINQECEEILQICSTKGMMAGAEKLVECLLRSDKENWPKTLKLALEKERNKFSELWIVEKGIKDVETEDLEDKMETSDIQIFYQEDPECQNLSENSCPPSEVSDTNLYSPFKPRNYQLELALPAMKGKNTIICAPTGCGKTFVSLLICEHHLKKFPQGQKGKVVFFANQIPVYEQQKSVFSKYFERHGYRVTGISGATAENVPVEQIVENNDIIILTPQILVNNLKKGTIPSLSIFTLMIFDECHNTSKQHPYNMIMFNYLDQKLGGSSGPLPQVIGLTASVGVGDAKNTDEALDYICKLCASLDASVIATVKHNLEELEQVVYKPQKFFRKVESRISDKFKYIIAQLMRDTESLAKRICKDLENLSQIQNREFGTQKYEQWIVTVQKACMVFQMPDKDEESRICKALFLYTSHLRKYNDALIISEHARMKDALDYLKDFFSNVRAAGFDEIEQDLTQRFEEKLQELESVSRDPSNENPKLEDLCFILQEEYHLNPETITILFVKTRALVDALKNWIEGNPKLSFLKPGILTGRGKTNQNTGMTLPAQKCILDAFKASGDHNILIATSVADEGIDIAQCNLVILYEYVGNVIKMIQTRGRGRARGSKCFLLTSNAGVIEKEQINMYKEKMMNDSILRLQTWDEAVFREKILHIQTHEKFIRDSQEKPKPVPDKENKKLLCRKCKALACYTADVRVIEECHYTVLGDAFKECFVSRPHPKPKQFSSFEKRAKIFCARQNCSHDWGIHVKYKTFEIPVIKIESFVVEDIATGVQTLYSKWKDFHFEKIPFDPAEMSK
Description: RIG-I ATPase Assays. RIG-I ATPase assays were performed as previously described (Devarkar et al. (2016) Proc. Natl. Acad. Sci. 113, 596-601). In brief, increasing amounts of RNA (10-60 nM) were added to a constant quantity of RIG-I (5 nM) in the presence of 1 mM ATP. ATP hydrolysis was measured with the EnzChek Phosphate Assay Kit (ThermoFisher) after 60-90 minutes at 37° C. ATP hydrolysis was then measured by absorbance of 360 nm compared to background. A 19-mer 5′triphosphate dsRNA (Invivogen) and DVG396 were used as positive controls and a 19-mer 5′OH dsRNA (Invivogen) and an in vitro transcribed 300 bp ssRNA stretch of GAPDH (GAPDH300) were used as negative controls.

For CNC(=O)c1cc(Oc2ccc3nc(N[C@@H]4CCCC[C@H]4O)sc3c2)ccn1 [BLZ945], the “response to checkpoint blockade with CSF1R inhibition” value [1] was “allows tumors with high levels of unshielded 7SL to respond more robustly to checkpoint blockade; also recorded: enhanced the anti-tumor activity of an anti-PD1 antibody and an anti-CTLA-4 antibody”, the “response to checkpoint blockade with CSF1R inhibition” value ([1]; listed as small molecule inhibitor of CSF1R) was “led to improved response in tumors with high levels of unshielded 7SL1” and the “activated CD4+ T cells in tumors” value ([2]; anti-CTLA4 +/- CSF1Ri, high unshielded 7SL, 13 days) was “markedly increased”. The “frequency of M2 macrophages in the tumor” value ([2]; high levels of unshielded 7SL RNA) was “decreased the frequency of M2 macrophages found in the tumor”, the “infiltration of cross-presenting CD103+ DCs” value ([2]; high levels of unshielded 7SL RNA, CSF1R inhibition) was “improving the infiltration of cross-presenting CD103+DCs” and the “sensitization of PDA tumors to ICB therapy” value [3] was “sensitizes PDA tumors to anti-PD-1 and anti-CTLA-4 antibody therapies”.

B1: SRP9: Recombinant SRP9 protein, GST tag cleaved with TEV protease (protein, UniProt P49458 2-86, looked up)
Signal recognition particle 9 …: PQYQTWEEFSRAAEKLYLADPMKARVVLKYRHSDGNLCVKVTDDLVCLVYKTDQAQDVKKIEKFHSQLMRLMVAKEARNVTMETE
B1 was tested, and the “ATP hydrolysis by recombinant RIG-I after addition of SRP9” value ([4]; SRP9 added to DVG396 or unrelated 5'ppp or 5'OH control RNAs) was “did not influence” and the “ATP hydrolysis by recombinant RIG-I after addition of SRP9” value ([4]; SRP9 added to in vitro transcribed RN7SL1) was “partially inhibited ATP hydrolysis by recombinant RIG-I”.
